{
  "source": "patent US12604903B2",
  "about": "(priority 2019, dated 2026)",
  "molecules": {"B1": {"name": "TKPCQSDKDCKKFACRKPKVPKCINGFCKCVRAPKKVEPTKPCQSDKDCKKFACRKPKVPKCINGFCKCVR (protein)", "chain": "TKPCQSDKDCKKFACRKPKVPKCINGFCKCVRAPKKVEPTKPCQSDKDCKKFACRKPKVPKCINGFCKCVR", "notes": "two NCR13 monomers linked in tandem by the APKKVEP spacer peptide from MtDef5 defensin, 71 amino acids"}},
  "key": {"Fusarium oxysporum": {"system": "Fusarium oxysporum", "assay_type": "cell-based"}},
  "note": "Read-outs that look alike come from different tables or passages of the source. Residues, ends and D or L forms follow the SMILES beside them.",
  "data": [
    {"molecule": "CSCC[C@H](NC(=O)[C@H](CCCCN)NC(=O)[C@@H](N)CCCCN)C(=O)N1CCC[C@H]1C(=O)N[C@@H](CS)C(=O)N[C@@H](CCCCN)C(=O)N[C@@H](CCCNC(=N)N)C(=O)N[C@@H](CCCNC(=N)N)C(=O)N[C@@H](CCCNC(=N)N)C(=O)N[C@@H](CC(=O)O)C(=O)N[C@@H](CS)C(=O)N[C@@H](CCCCN)C(=O)N[C@H](C(=O)N[C@@H](Cc1ccc(O)cc1)C(=O)N1CCC[C@H]1C(=O)N[C@@H](CS)C(=O)N1CCC[C@H]1C(=O)N[C@@H](Cc1c[nH]cn1)C(=O)N1CCC[C@H]1C(=O)N[C@@H](CCCCN)C(=O)N[C@H](C(=O)N[C@@H](CCCNC(=N)N)C(=O)N[C@@H](CC(=O)O)C(=O)N[C@@H](CS)C(=O)N[C@H](C(=O)N[C@@H](CCCCN)C(=O)NCC(=O)N[C@@H](Cc1ccc(O)cc1)C(=O)N[C@@H](CS)C(=O)N[C@@H](CCCCN)C(=O)N[C@@H](CS)C(=O)N[C@H](C(=O)N[C@H](C(=O)N[C@@H](CCCNC(=N)N)C(=O)O)C(C)C)C(C)C)C(C)C)C(C)C)[C@@H](C)O", "note": "[NCR7-S] (H-KKMPCKRRRDCKTYPCPHPKVRDCVKGYCKCVVR-OH; N-terminus and C-terminus assumed)", "values": [
      {"measurement": "Botrytis cinerea MIC", "setting": "Botrytis cinerea", "result": 6, "unit": "µM"},
      {"measurement": "IC50", "setting": "Botrytis cinerea", "result": 3000, "unit": "nM"},
      {"measurement": "Fusarium graminearum MIC", "setting": "Fusarium graminearum", "result": 6, "unit": "µM"},
      {"measurement": "IC50", "setting": "Fusarium graminearum", "result": 4, "unit": "µM"},
      {"measurement": "IC50", "setting": "Phytophthora capsici", "result": "> 6", "unit": "µM"},
      {"measurement": "Phytophthora capsici MIC", "setting": "Phytophthora capsici", "result": ">6", "unit": "µM"},
      {"measurement": "Alternaria brassicicola MIC", "setting": "Alternaria brassicicola", "result": 6, "unit": "µM"},
      {"measurement": "IC50", "setting": "Alternaria brassicicola", "result": 4, "unit": "µM"}
    ]},
    {"molecule": "CC[C@H](C)[C@H](NC(=O)[C@H](CS)NC(=O)[C@H](CCCCN)NC(=O)[C@@H]1CCCN1C(=O)[C@@H](NC(=O)[C@H](CCCCN)NC(=O)[C@@H]1CCCN1C(=O)[C@H](CCCCN)NC(=O)[C@H](CCCNC(=N)N)NC(=O)[C@H](CS)NC(=O)[C@H](C)NC(=O)[C@H](Cc1ccccc1)NC(=O)[C@H](CCCCN)NC(=O)[C@H](CCCCN)NC(=O)[C@H](CS)NC(=O)[C@H](CC(=O)O)NC(=O)[C@H](CCCCN)NC(=O)[C@H](CC(=O)O)NC(=O)[C@H](CO)NC(=O)[C@H](CCC(N)=O)NC(=O)[C@H](CS)NC(=O)[C@@H]1CCCN1C(=O)[C@H](CCCCN)NC(=O)[C@@H](N)[C@@H](C)O)C(C)C)C(=O)N[C@@H](CC(N)=O)C(=O)NCC(=O)N[C@@H](Cc1ccccc1)C(=O)N[C@@H](CS)C(=O)N[C@@H](CCCCN)C(=O)N[C@@H](CS)C(=O)N[C@H](C(=O)N[C@@H](CCCNC(=N)N)C(=O)O)C(C)C", "note": "[NCR13-S] (H-TKPCQSDKDCKKFACRKPKVPKCINGFCKCVR-OH)", "values": [
      {"measurement": "Botrytis cinerea MIC", "setting": "Botrytis cinerea", "result": 3, "unit": "µM"},
      {"measurement": "IC50", "setting": "Botrytis cinerea", "result": 1500, "unit": "nM"},
      {"measurement": "Fusarium graminearum MIC", "setting": "Fusarium graminearum", "result": 6, "unit": "µM"},
      {"measurement": "IC50", "setting": "Fusarium graminearum", "result": 4, "unit": "µM"},
      {"measurement": "IC50", "setting": "Phytophthora capsici", "result": "> 6", "unit": "µM"},
      {"measurement": "Phytophthora capsici MIC", "setting": "Phytophthora capsici", "result": ">6", "unit": "µM"},
      {"measurement": "Alternaria brassicicola MIC", "setting": "Alternaria brassicicola", "result": 6, "unit": "µM"},
      {"measurement": "IC50", "setting": "Alternaria brassicicola", "result": 4, "unit": "µM"}
    ]},
    {"molecule": "CC(C)[C@H](NC(=O)[C@H](CS)NC(=O)[C@H](CCCCN)NC(=O)[C@H](CS)NC(=O)[C@H](Cc1ccccc1)NC(=O)CNC(=O)[C@H](CC(N)=O)NC(=O)[C@@H](NC(=O)[C@H](CS)NC(=O)[C@H](CC(N)=O)NC(=O)[C@@H]1CCCN1C(=O)[C@@H](NC(=O)[C@H](CCCCN)NC(=O)[C@@H]1CCCN1C(=O)[C@@H](NC(=O)[C@@H]1CCCN1C(=O)[C@H](CS)NC(=O)[C@H](CCCNC(=N)N)NC(=O)[C@H](Cc1ccc(O)cc1)NC(=O)[C@@H](NC(=O)[C@H](CCCCN)NC(=O)[C@H](CS)NC(=O)[C@H](Cc1c[nH]cn1)NC(=O)[C@H](CCCCN)NC(=O)[C@H](CCCNC(=N)N)NC(=O)[C@H](CO)NC(=O)[C@H](CCCCN)NC(=O)[C@H](CS)NC(=O)[C@@H]1CCCN1C(=O)[C@H](CCC(N)=O)NC(=O)[C@H](CCCCN)NC(=O)[C@@H](N)[C@@H](C)O)[C@@H](C)O)[C@@H](C)O)C(C)C)C(C)C)C(=O)N[C@@H](CCCNC(=N)N)C(=O)O", "note": "[NCR15-S] (H-TKQPCKSRKHCKTYRCPTPKVPNCVNGFCKCVR-OH; N-terminus and C-terminus assumed)", "values": [
      {"measurement": "Botrytis cinerea MIC", "setting": "Botrytis cinerea", "result": 6, "unit": "µM"},
      {"measurement": "IC50", "setting": "Botrytis cinerea", "result": 3000, "unit": "nM"},
      {"measurement": "Fusarium graminearum MIC", "setting": "Fusarium graminearum", "result": 6, "unit": "µM"},
      {"measurement": "IC50", "setting": "Fusarium graminearum", "result": 4, "unit": "µM"},
      {"measurement": "IC50", "setting": "Phytophthora capsici", "result": "> 6", "unit": "µM"},
      {"measurement": "Phytophthora capsici MIC", "setting": "Phytophthora capsici", "result": ">6", "unit": "µM"},
      {"measurement": "Alternaria brassicicola MIC", "setting": "Alternaria brassicicola", "result": 6, "unit": "µM"},
      {"measurement": "IC50", "setting": "Alternaria brassicicola", "result": 3, "unit": "µM"}
    ]},
    {"molecule": "TKPCQSDKDCKKFACRKPKVPKCINGFCKCVR (listed as Cicer arietinum) [NCR13-P]", "values": [
      {"measurement": "Fusarium oxysporum MIC", "setting": "Fusarium oxysporum", "result": "2 to 3", "unit": "µM"},
      {"measurement": "IC50", "setting": "Fusarium oxysporum", "result": 1000, "unit": "nM"},
      {"measurement": "Botrytis cinerea MIC", "setting": "Botrytis cinerea", "result": 3, "unit": "µM"},
      {"measurement": "IC50", "setting": "Botrytis cinerea; read-out: Botrytis cinerea IC50", "result": 1000, "unit": "nM"},
      {"measurement": "Fusarium graminearum MIC", "setting": "Fusarium graminearum", "result": 3, "unit": "µM"},
      {"measurement": "IC50", "setting": "Fusarium graminearum; read-out: Fusarium graminearum IC50", "result": 2, "unit": "µM"},
      {"measurement": "Phytophthora capsici MIC", "setting": "Phytophthora capsici", "result": ">6", "unit": "µM"},
      {"measurement": "growth inhibition of P. capsici (in words)", "setting": "Phytophthora capsici", "result": "inactive"},
      {"measurement": "IC50", "setting": "Phytophthora capsici; read-out: Phytophthora capsici IC50", "result": "> 6", "unit": "µM"},
      {"measurement": "Alternaria brassicicola MIC", "setting": "Alternaria brassicicola", "result": 4, "unit": "µM"},
      {"measurement": "IC50", "setting": "Alternaria brassicicola; read-out: Alternaria brassicicola IC50", "result": 2, "unit": "µM"}
    ]},
    {"molecule": "B1", "values": [
      {"measurement": "Fusarium oxysporum MIC", "setting": "Fusarium oxysporum", "result": 0.3, "unit": "µM"},
      {"measurement": "IC50", "setting": "Fusarium oxysporum", "result": 100, "unit": "nM"},
      {"measurement": "antifungal activity against F. oxysporum (in words)", "setting": "Fusarium oxysporum", "result": "significantly more active"},
      {"measurement": "antifungal activity against B. cinerea (in words)", "setting": "Botrytis cinerea", "result": "significantly more active"},
      {"measurement": "Botrytis cinerea MIC", "setting": "Botrytis cinerea; in vitro growth inhibition", "result": 1.5, "unit": "µM"},
      {"measurement": "IC50", "setting": "Botrytis cinerea; read-out: Botrytis cinerea IC50, in vitro growth inhibition", "result": 750, "unit": "nM"},
      {"measurement": "Fusarium graminearum MIC", "setting": "Fusarium graminearum; in vitro growth inhibition", "result": 1.5, "unit": "µM"},
      {"measurement": "IC50", "setting": "Fusarium graminearum; read-out: Fusarium graminearum IC50, in vitro growth inhibition", "result": 1, "unit": "µM"}
    ]}
  ]
}
